From BindingDB's records for doi:10.7270/Q25M67W6 (n/a, 1992)

Assays:
Serine protease 1 = Serine protease 1 (Homo sapiens, UniProt P07477); test: Rate constant of deacylation for trypsin
[1] = target: Urokinase-type plasminogen activator (Homo sapiens, UniProt P00749); test: Rate constant of deacylation for Urokinase-type plasminogen activator
Prothrombin = Prothrombin (Homo sapiens, UniProt P00734); test: Rate constant of deacylation for thrombin

Sequence of Serine protease 1 (P07477 whole entry): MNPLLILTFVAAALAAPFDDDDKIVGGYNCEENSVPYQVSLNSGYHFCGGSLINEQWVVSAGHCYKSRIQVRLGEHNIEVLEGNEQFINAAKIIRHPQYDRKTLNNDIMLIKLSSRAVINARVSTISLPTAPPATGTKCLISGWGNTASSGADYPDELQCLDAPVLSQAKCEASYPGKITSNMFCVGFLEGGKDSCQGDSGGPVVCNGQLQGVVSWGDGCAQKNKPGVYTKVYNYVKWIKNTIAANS

koff (Serine protease 1)	koff [1]	koff (Prothrombin)	SMILES
3.3e-05 s⁻¹	0.00015 s⁻¹	–	C=C1CC(c2ccc(NC(=N)N)cc2)CC(=C)O1
–	–	0.000217 s⁻¹	N=C(N)NCc1ccc(C2CC/C(=C\I)OC2=O)cc1 (stereo not drawn)
8.3e-05 s⁻¹	1.3e-05 s⁻¹	–	C=C1O/C(=C/I)C[C@H](c2ccc(NC(=N)N)cc2)[C@H]1NC(=O)c1ccccc1
0.000333 s⁻¹	–	–	C=C1CC(c2ccc(NC(=N)N)cc2)C/C(=C\I)O1 (stereo not drawn)
–	0.000733 s⁻¹	0.0001 s⁻¹	C=C1CCC(c2ccc(CNC(=N)N)cc2)C(=O)O1 (stereo not drawn)
